Test results reported in patent publication US20110082037A1, “Adjuvant Compositions” (COGNIS IP MANAGEMENT GMBH, priority 2008, published 2011).
Where a name gives a salt, the structure may show the parent alone.

Legend:
[1] = test system: Winter wheat (Triticum aestivum); assay: Greenhouse experiment: influence of adjuvants on glyphosate efficacy on wheat (fresh weight 21 DAT); assay type: in vivo; settings: adjuvant 0.25% w/v
Experimental: (§1) Greenhouse experiments were conducted to investigate the potency of the mixtures of alkoxylated oligoglycosides and alkoxylated primary alcohols as adjuvants for glyphosate. Winter wheat (Triticum aestivum) was used as a model for difficult-to-wet grasses and black night-shade (Solanum nigrum) was used as a model plant with an easy-to-wet, but difficult-to-penetrate, leaf surface. Both were grown in a growth chamber under 14 hours of light, at 18/12(±0.5)° C. (day/night) temperature, and in 70/80(±5)% (day/night) relative humidity. Light was provided by high-pressure mercury lamps and fluorescent tubes to give 70 W/m^2 (PAR) at leaf level. The plants were grown in 11 cm diameter plastic pots filled with a mixture of sand and humic potting soil (1:2 by volume). The pots were placed on sub-irrigation matting which was wetted daily with half-strength nutrient solution. After emergence, the wheat seedlings were thinned to six plants/pot for the efficacy experiments. Black nightshade seedlings were thinned to one plant/pot. Black nightshade and wheat were treated at the three- and the four-leaf stage, respectively. The fresh weights of the plants were measured 14 days after treatment (DAT) for black nightshade and 21 DAT for wheat. The glyphosate solutions were applied with an air-pressured laboratory track sprayer with 1.2-mm nozzles fitted with a perforated (0.6 mm) whirling pin and delivering 200 L/ha at 303 kPa. These were added to the unformulated monoisopropylamine salt of glyphosate [MON 8717 (glyphosate IPA salt 648 gai/litre=2.84 M without adjuvant)] at a concentration of 0.25% (w/v). Demineralised water was used as the carrier.
(§2) Based on previous work, these rates were 77.8 gae/hectare (equivalent to 2.3 mM at 200 litres/hectare) on wheat and 30.4 gae/hectare (equivalent to 0.9 mM) on black nightshade. The experiments were conducted as a randomised complete block with four replicates. Two separate experiments were conducted for each of the two plant species. The data was subjected to analysis of variance using the Genstat statistical package (Release 6.1 from Rothamsted Experimental Station). The performance of the products on both species was expressed as a percentage of the FW of untreated plants. Examples 1 to 8 are according to the invention, examples C1 to C12 serve as comparison.

[2] = test system: black nightshade SOLNI (Solanum Nigrum); assay: Greenhouse experiment: influence of adjuvants on glyphosate efficacy on black nightshade (fresh weight 14 DAT); assay type: in vivo; settings: adjuvant 0.25% w/v
Experimental: as §1, §2

[3] = average of trials 1 and 2, glyphosate 2.3 mM
[4] = glyphosate 2.3 mM (77.8 g a.e./ha at 200 L/ha)
[5] = 0.6 mM glyphosate (20.3 g a.e./ha at 200 L/ha)
[6] = 0.9 mM glyphosate (30.4 g a.e./ha at 200 L/ha)

O=C(O)CNCP(=O)(O)O [Gly, monoisopropylamine salt of glyphosate]
Average % (FW as percentage of the FW of untreated plants) [1, 3]: 78.3%
Average g FW [1, 3]: 18.15 g
Trial 1 g FW [1, 4]: 22.33 g
Trial 2 g FW [1, 4]: 13.97 g
Trial 2 % (FW as percentage of the FW of untreated plants) [2, 5]: 84.5%
Trial 2 g FW [2, 5]: 14.66 g
Trial 1 % (FW as percentage of the FW of untreated plants) [2, 6]: 35.1%
Trial 1 g FW [2, 6]: 5.59 g
